According to publication PMC12587390, “Metabolite Identification Data in Drug Discovery, Part 1: Data Generation and Trend Analysis” (Molecular Pharmaceutics, 2025):

What was measured:
[1] = MetID on in vivo dog samples (plasma, urine); parameters: species or system dog (beagles); conditions: sampled at 3 h and 30 min
Description: (§1) The workup procedure could vary somewhat depending on the compound and dose, but the general procedure was as follows: Two volumes of ACN/methanol (1:1, v:v) were added to the plasma samples and vortex-mixed to precipitate the proteins. Thereafter, the samples were centrifuged for 10 min (at 10,000 g and 4 °C), and the supernatants were diluted with one volume of water. The urine samples were diluted with one volume of ACN/methanol (1:1, v:v) and centrifuged for 10 min (at 10,000 g and 4 °C), followed by a 1:1 dilution with water.
(§2) Structural characterization of metabolites and metabolite profiling were performed using the Waters Acquity ultraperformance liquid chromatography (UPLC) system fitted to a Waters High-Resolution Mass Spectrometer (MS) (Xevo G2-S, Synapt G2-Si, or a Synapt XS MS). The Waters MS systems, equipped with an electrospray ionization (ESI) source, were operated in positive-ion sensitivity mode over a mass range m/z 50–1200 and in negative-ion sensitivity mode over a mass range m/z of 50–1200.
(§3) The reversed-phase gradient elution was performed on an Acquity U(H)-PLC BEH C18 column (2.1 × 100 mm, 1.7 μm, Waters) set at 45 °C. The mobile phases consisted of 0.1% FA in water (A) and ACN (B). […] The injection volume was 2 μL. The MS settings were optimized for the respective MS instrument. […] A scan time of 0.1 s was used, and data were acquired in centroid mode. Collision energy was set to “off” for the low-energy function, whereas in the high-energy MSe functions, the collision energies were typically ramped from 15 to 35 V in the trap cell, with constant collision energies of 20 V in their transfer cells. Cone voltage was set to 25 V for both low- and high-energy functions. For dedicated MS/MS, the m/z of the molecular ion was selected in the quadrupole, and the mass range for fragmentation analysis was typically set between 50 and 1200. The collision energies were either the same as those stated above for MSe data generation or optimized for a specific metabolite. Tune parameters for all MS analyses consisted of a capillary energy of 0.5 kV, sampling cone energy of 40 V, source temperature of 150 °C, desolvation temperature of 550 °C, cone gas flow of 0 L/h, desolvation gas flow of 1200 L/h, and nebulizer pressure of 6.5 bar.
(§4) Metabolite identification was conducted by processing the generated data using the MetaboLynx XS browser (Waters), MassMetaSite and the web interface ONIRO (Mass Analytica). […] Accurate masses of metabolites were determined from the protonated molecules in the positive ESI time-of-flight MS (ESI–TOF–MS) mode and from the deprotonated molecules in the negative ESI–TOF–MS mode. […] For those metabolites where no MS/MS data could be acquired, identification was based on the accurate mass of the molecular ion and the fragmentation seen in the MSe spectrum. Relative amounts of detected metabolites were calculated as % of the total MS area by dividing the MS peak area for the metabolite (or parent compound) by the combined MS peak area for the parent compound and all identified metabolites.

[2] = MetID on in vivo rat plasma samples; parameters: species or system rat (Han Wistar)
Description: as §1, §2, §3, §4

dog hepatocytes = test: Metabolite identification in dog hepatocyte incubations; type: in vitro ADME; conditions: Cmpd 28 incubated for 120 min, 4 μM
Description: (§5) Cryopreserved, pooled primary human, dog, and rat hepatocytes were obtained from BioIVT (previously Celsis IVT). L-15 Leibovitz buffer was placed in a water bath to reach 37 °C. Cryopreserved hepatocytes were transferred from a −150 °C freezer on dry ice and immediately immersed in a preheated water bath kept at 37 °C for thawing. When only a small ice crystal could be seen, the content was emptied into a 50 mL falcon tube filled with warm buffer (maximum four vials/falcon tube). The suspension was centrifuged at room temperature for 3 min at 50 g. The supernatant was removed, the pellet was resuspended in a small volume of buffer, and the falcon tube was refilled with buffer, followed by another centrifugation to wash away any remaining storage buffer. Thereafter, the supernatant was removed, and the pellet was dissolved in a small volume of buffer and diluted to a concentration of about 3–5 million cells/mL. After counting the cells using a Casy cell counter, the suspension was diluted to 1 million viable cells/mL and kept at room temperature until use. The viability cutoff was 80%.
(§6) An aliquot of 245 μL of hepatocyte suspension was added to a round-bottomed 96-deep-well plate using a manual multipipette. The deep-well plate was preincubated for 15 min at 37 °C and 13 Hz. Substrate solutions of the assay compounds were prepared by the robot in a 96-well plate as follows: 4 μL of 10 mM DMSO stock solution, followed by the addition of 96 μL of ACN:water (1:1, v:v) and mixing by shaking. 50 μL from each well were transferred to and combined in a new plate, resulting in 100 μL per well and a dilution of 1:1.
(§7) The reaction was started by the addition of 5 μL of 200 μM substrate solution to the preheated hepatocyte suspension, resulting in a final substrate concentration of 4 μM (0.04% DMSO, <0.5% ACN). The incubation was continued at 37 °C and 13 Hz. At each time point (0, 40, and 120 min), a 50 μL sample was taken out and quenched in 200 μL of cold ACN:methanol (1:1, v:v), and the stopped plates were centrifuged for 20 min (set at 4 °C and 4000 g). The supernatant was diluted by taking 50 μL and mixing it with 100 μL of water. Incubations of the positive controls, albendazole and dextromethorphan, were performed in parallel as described above.
as §2
The reversed-phase gradient elution was performed on an Acquity U(H)-PLC BEH C18 column (2.1 × 100 mm, 1.7 μm, Waters) set at 45 °C. The mobile phases consisted of 0.1% FA in water (A) and ACN (B). […] The injection volume was 2 μL. The MS settings were optimized for the respective MS instrument. […] A scan time of 0.1 s was used, and data were acquired in centroid mode. Collision energy was set to “off” for the low-energy function, whereas in the high-energy MSe functions, the collision energies were typically ramped from 15 to 35 V in the trap cell, with constant collision energies of 20 V in their transfer cells. Cone voltage was set to 25 V for both low- and high-energy functions. For dedicated MS/MS, the m/z of the molecular ion was selected in the quadrupole, and the mass range for fragmentation analysis was typically set between 50 and 1200. The collision energies were either the same as those stated above for MSe data generation or optimized for a specific metabolite.

rat hepatocytes = test: Metabolite identification in rat hepatocyte incubations; type: in vitro ADME; conditions: Cmpd 28 incubated for 120 min, 4 μM
Description: as §5, §6
as §7, with “The supernatant was diluted by taking 50 μL and mixing it with 100 μL of water. Incubations of the positive controls, albendazole and dextromethorphan, were performed in parallel as described above.” left out

[3] = after Cmpd 16, semiquantitative
[4] = after Cmpd 16, oral, sampled at 60 min

SMILES	% of the total MS area, Dog Plasma (Female) [1, 3] [%]	% of the total MS area, Rat Plasma (Female) [2, 4] [%]	% of the total MS area, Rat Plasma (Male) [2, 4] [%]	% of the total MS area, Dog Hepatocytes (Mixed gender) (dog hepatocytes)	% of the total MS area, Rat Hepatocytes (Mixed gender) (rat hepatocytes)	% of the total MS area, Dog Plasma (Female) ([1]; after Cmpd 28) [%]	% of the total MS area, Rat Plasma (Female) ([2]; after Cmpd 28, sampled at 4 h)	% of the total MS area, Rat Plasma (Male) ([2]; after Cmpd 28, sampled at 4 h)
O=C(O)[C@@H]1CCCC[C@H]1C(=O)c1ccc(-c2cc[nH]n2)cc1 [Cmpd 16 M10]	1	1	1					
O=C(Nc1c[nH]nc1C(F)(F)F)[C@@H]1CCCC[C@H]1C(=O)c1ccc(-c2cc[nH]n2)cc1 [Cmpd 16 M12]	2	2						
O=C(O)[C@H]1OC(OC(=O)[C@@H]2CCCC[C@H]2C(=O)c2ccc(-c3cc[nH]n3)cc2)[C@H](O)[C@@H](O)[C@@H]1O (stereo partly shown) [Cmpd 16 M13]	0.5							
Cc1cc(-c2ccc(C(=O)[C@@H]3CCCC[C@H]3C(=O)O)cc2)n[nH]1 [Cmpd 28 M1]				4%	no detection	12	18%	17%
Cc1cc(-c2ccc(C(=O)C3CCCCC3C(=O)OC3OC(C(=O)O)C(O)C(O)C3O)cc2)n[nH]1 (stereo not shown) [Cmpd 28 M2]				4%	no detection	40	1%	0.5%

Second part, the compound after the results:

% of the total MS area, Dog Plasma (Female) [1, 3] [%]	% of the total MS area, Rat Plasma (Female) [2, 4] [%]	% of the total MS area, Rat Plasma (Male) [2, 4] [%]	% of the total MS area, Dog Hepatocytes (Mixed gender) (dog hepatocytes)	% of the total MS area, Rat Hepatocytes (Mixed gender) (rat hepatocytes)	% of the total MS area, Dog Plasma (Female) ([1]; after Cmpd 28) [%]	% of the total MS area, Rat Plasma (Female) ([2]; after Cmpd 28, sampled at 4 h)	% of the total MS area, Rat Plasma (Male) ([2]; after Cmpd 28, sampled at 4 h)	SMILES
			2%	3%	1	not seen	not seen	Cc1nn(C)cc1NC(=O)[C@@H]1CCCC[C@H]1C(=O)c1ccc(-c2cc(CO)[nH]n2)cc1 [Cmpd 28 M4]
			not detected		5	not seen	not seen	Cc1nn(C)cc1NC(=O)[C@@H]1CCCC[C@H]1C(=O)c1ccc(-c2cc(C(=O)O)[nH]n2)cc1 [Cmpd 28 M7]
						1%	3%	Cc1cc(-c2ccc(C(=O)[C@@H]3CCCC[C@H]3C(N)=O)cc2)n[nH]1 [Cmpd 28 M8]
							1%	O=C(O)[C@@H]1CCCC[C@H]1C(=O)c1ccc(-c2cc(CO)[nH]n2)cc1 [Cmpd 28 M10]
